From ChEMBL document CHEMBL4616684, “Potential Cancer Treatment by Agonists of the Stimulator of Interferon Genes” (ACS Med Chem Lett, 2020)
pEC50: −log10 of the molar value.

What was measured:
[1] = molecular target: Stimulator of interferon genes protein (Homo sapiens, UniProt Q86WV6, G230A/R293Q/R71H); test: Activation of full length human STNG R71H/G230A/R293Q mutant expressed in Trichoplusia ni cell membrane incubated for 60 mins followed by addition of [3H]cGAMP by competitive binding assay; assay type: cell membranes
[2] = molecular target: Stimulator of interferon genes protein (Homo sapiens) (UniProt Q86WV6); test: Agonist activity at STING in human THP1 cells assessed as assessed as increase in IFNbeta secretion at 30 uM measured after 5 hrs by AlphaLISA assay relative to 2'3'-cGAMP; assay type: cell-based; conditions: THP-1
Stimulator of interferon genes protein (Homo sapiens), sequence (Q86WV6 whole entry): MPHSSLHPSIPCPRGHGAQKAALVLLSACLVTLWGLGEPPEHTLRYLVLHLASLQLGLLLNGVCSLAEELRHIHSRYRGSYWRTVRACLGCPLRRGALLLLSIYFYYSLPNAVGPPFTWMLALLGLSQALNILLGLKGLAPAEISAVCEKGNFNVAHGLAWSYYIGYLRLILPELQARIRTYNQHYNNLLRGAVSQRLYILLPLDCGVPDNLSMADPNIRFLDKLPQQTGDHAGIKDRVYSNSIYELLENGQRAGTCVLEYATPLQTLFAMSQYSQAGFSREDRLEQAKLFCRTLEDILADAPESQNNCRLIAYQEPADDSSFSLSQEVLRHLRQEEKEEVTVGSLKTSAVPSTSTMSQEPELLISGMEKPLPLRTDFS

Stimulator of interferon genes protein, sequence (Q86WV6 whole entry R71H/G230A/R293Q): as the sequence (Q86WV6 whole entry) above, with R71H, G230A, R293Q counted along it

COc1cc2sc(C(=O)C3CC3C(=O)O)cc2nc1OC (configuration not stated)
pEC50 [1]: 5.94
Activity [2]: 100%

CCC(CC(=O)c1cc2nc(OC)c(OC)cc2s1)C(=O)O (configuration not stated)
pEC50 [1]: 5.76
Activity [2]: 85%

COc1cc2sc(C(=O)C[C@H](C)C(=O)O)nc2cc1Br
pEC50 [1]: 4.97
Activity [2]: 11%

COc1cc2sc(C(=O)C[C@H](C)C(=O)O)nc2nc1OC
pEC50 [1]: 5.00
Activity [2]: 14%

COc1cc2cc(C(=O)CCC(=O)O)sc2nc1OC
pEC50 [1]: 5.26
Activity [2]: 146%

COc1cc2nc(C(=O)CCC(=O)O)sc2cc1OC
pEC50 [1]: 4.88
Activity [2]: 56%
